Experimental data published in patent publication US20190274308A1, “METHOD FOR PROTECTING PLANTS FROM PESTS USING A PESTICIDE COMPOSITION WITH ADJUSTABLE PERSISTENCE AND DEGRADABILITY” (Flechsig Patent Company LLC, priority 2016, published 2019).

Type: physicochemical
Excerpt: A further characterizing parameter of the soil is the content of microorganisms, in particular bacteria, fungi and microfauna.
Tables 5 and 6 below indicate the degradation times of exemplary poly(alkyl)guanidines depending on various contents of microorganisms in the soil.
These determinations were obtained basically according to established methods, in particular as described in “Bodenbiologische Arbeitsmethoden”, 2nd revised and expanded edition, F. Schinner, E. Kandeler, R. Öhlinger, R. Margesin (eds.) (1993).
To determine the total bacterial count according to Trolldenier (1972), a soil suspension is applied onto a defined area of a slide and the dried soil film is stained with acridine orange. The bacterial count is determined in a plurality of counting fields under the fluorescence microscope and from this the total bacterial count of the soil sample is calculated.
The ergosterol of the soil fungi is saponified with KOH, extracted with n-hexane in the separating funnel, dried at 40° C. in the rotary evaporator and then dissolved in methanol. Detection is achieved by means of HPLC at 282 nm. The procedure is based on the method of Zelles et al. (1987) and was modified in a few points.
For the sake of simplicity calculation is performed using the dimensions of the dishes. At least 10 individuals per species should be measured. The resulting volume mean value can be equated numerically with the weight, as the specific mass of the microfauna is approximately 1 g cm^−3.

For poly(hexamethylene)guanidine [C6 PHMG], the “Difference days min/max degradation time, bact., fungi, microfauna” value (“Difference days min/max degradation time” for short) was 30 days.
With poly(octamethylene)guanidine [C8 POMG] the “Difference days min/max degradation time” value was 36 days.
For poly(tetramethylene)guanidine [C4 PTMG], the “Difference days min/max degradation time” value was 22 days.
